These results are taken from ChEMBL document CHEMBL1781985, “Carbonic anhydrase inhibitors. Phenacetyl-, pyridylacetyl- and thienylacetyl-substituted aromatic sulfonamides act as potent and selective isoform VII inhibitors” (Bioorg Med Chem Lett, 2009).

pKi: −log10 of the molar value.

Among the targets are Carbonic anhydrase 7 (Homo sapiens, UniProt P43166); Carbonic anhydrase 1 (Homo sapiens, UniProt P00915); Carbonic anhydrase 2 (Homo sapiens, UniProt P00918).

Chain of Carbonic anhydrase 7 (P43166 whole entry): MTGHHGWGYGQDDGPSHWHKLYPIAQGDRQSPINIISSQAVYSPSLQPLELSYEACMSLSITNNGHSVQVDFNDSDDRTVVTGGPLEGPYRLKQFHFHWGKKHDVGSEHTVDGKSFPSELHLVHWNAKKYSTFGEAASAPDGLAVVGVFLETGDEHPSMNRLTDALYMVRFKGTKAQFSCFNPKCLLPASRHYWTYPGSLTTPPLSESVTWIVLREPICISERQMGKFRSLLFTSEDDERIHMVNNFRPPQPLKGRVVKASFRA
Chain of Carbonic anhydrase 1 (P00915 whole entry): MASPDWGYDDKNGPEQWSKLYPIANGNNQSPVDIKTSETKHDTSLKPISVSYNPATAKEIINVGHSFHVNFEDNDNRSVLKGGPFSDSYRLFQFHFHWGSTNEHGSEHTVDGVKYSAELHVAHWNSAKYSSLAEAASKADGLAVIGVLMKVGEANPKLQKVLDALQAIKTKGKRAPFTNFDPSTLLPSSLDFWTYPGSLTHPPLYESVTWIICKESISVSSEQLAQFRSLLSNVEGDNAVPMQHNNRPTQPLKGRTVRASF

Turning to `NS(=O)(=O)c1ccc(NC(=O)Cc2ccccc2)cc1`, the figures for the negative logarithm of the Ki (pKi) on Carbonic anhydrase 7, at Carbonic anhydrase 1 and on Carbonic anhydrase 2 were 8.33, 6.97 and 6.97, respectively.
As for `NS(=O)(=O)c1ccc(NC(=O)Cc2cccs2)cc1`, the values for the pKi on Carbonic anhydrase 7, on Carbonic anhydrase 1 and on Carbonic anhydrase 2 were 8.21, 7.21 and 7.30, respectively.
On to `NS(=O)(=O)c1ccc(CCNC(=O)Cc2cccs2)cc1`, for which the pKi at Carbonic anhydrase 7 was 8.12; on Carbonic anhydrase 1 it was 7.17; at Carbonic anhydrase 2, 7.28.
As for `NS(=O)(=O)c1ccc(CNC(=O)Cc2cccs2)cc1`, the pKi on Carbonic anhydrase 7 was 8.15; at Carbonic anhydrase 1 it was 7.22; on Carbonic anhydrase 2, 7.28.
